# Molecular target: T1, P2X7 receptor (Homo sapiens, UniProt Q99572)
# T1 construct: host or cells: THP-1 cells differentiated with LPS and IFN-γ
# T1 sequence (Q99572 1-595): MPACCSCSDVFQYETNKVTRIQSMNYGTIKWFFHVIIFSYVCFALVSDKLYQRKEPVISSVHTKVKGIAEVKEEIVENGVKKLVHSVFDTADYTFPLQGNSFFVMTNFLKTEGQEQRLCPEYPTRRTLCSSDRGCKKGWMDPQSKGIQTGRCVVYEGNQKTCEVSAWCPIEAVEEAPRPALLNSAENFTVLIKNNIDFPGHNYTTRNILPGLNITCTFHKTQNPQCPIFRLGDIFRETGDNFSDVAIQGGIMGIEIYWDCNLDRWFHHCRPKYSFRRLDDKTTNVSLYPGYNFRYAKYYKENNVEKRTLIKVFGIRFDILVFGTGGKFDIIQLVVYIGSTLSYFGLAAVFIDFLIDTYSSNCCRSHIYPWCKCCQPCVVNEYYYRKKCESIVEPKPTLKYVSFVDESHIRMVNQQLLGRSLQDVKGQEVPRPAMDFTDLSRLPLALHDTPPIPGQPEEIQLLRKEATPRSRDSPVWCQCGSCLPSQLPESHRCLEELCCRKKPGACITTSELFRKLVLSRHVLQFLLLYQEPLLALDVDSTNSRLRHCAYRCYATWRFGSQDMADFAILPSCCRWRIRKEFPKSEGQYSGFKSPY
# Assay: IL-1β release assay (BzATP-stimulated, LPS/IFN-γ differentiated THP-1 cells, ELISA)
# Format: cell-based
# Details: for inhibition at 0.1 µM: at 0.1 μM (asterisk symbols); for inhibition at 0.3 µM: at 0.3 μM (plus symbols)
# Protocol: THP-1 cells (ATCC Cat # 285-IF-100) are plated in 96 well plates at a concentration of 200,000 cells per well and allowed to differentiate in RPMI-1640 media (ATCC Cat # 30-2001) containing 10% FBS, 100 IU/mL penicillin, 100 ug/mL streptomycin, 100 ng/mL LPS and 100 ng/mL IFN-γ for 16 hours. Following differentiation, the cells are treated for an additional 2 hours in RPMI-1640 media containing 100 IU/mL penicillin, 100 ug/mL streptomycin and fresh LPS at 100 ng/mL. The cells are then pretreated for 30 minutes with the compound of interest at the appropriate concentration in RPMI media containing 100 IU/mL penicillin, 100 ug/mL streptomycin. Following the pretreatment 2′,3′-O-(4-benzoylbenzoyl)-adenosine 5′-triphosphate (Sigma Aldrich Cat# B6396) is added to a final concentration of 250 uM and the cells incubated for an additional 45 minutes. 30 uL of cell supernatant is then collected and […] levels determined via ELISA (R&D systems Cat. # HSLB50) according to manufacturer's recommendations using the Tecan Safire plate reader. Background adjusted IL-1β levels of drug treated and non-treated cells are used to calculate the percent inhibition.
smiles,measurement,value
CC12CC3CC(C)(C1)CC(CC(=O)Nc1cccc4c(=O)n(Cc5ccco5)ccc14)(C3)C2 [Compound 760],inhibition at 0.1 µM,25 to 50%
O=C(CC12CC3CC(CC(C3)C1)C2)Nc1cccc2c1CCNC2=O [Compound 874],inhibition at 0.1 µM,≥ 75%
CN1CCN(CCCn2ccc3c(NC(=O)CC45CC6CC(CC(C6)C4)C5)cccc3c2=O)CC1 [Compound 787],inhibition at 0.1 µM,≥ 75%
CC12CC3CC(C)(C1)CC(CC(=O)Nc1cccc4c(=O)n(CC5CCOCC5)ccc14)(C3)C2 [Compound 820],inhibition at 0.1 µM,≥ 75%
CCN1CCCC1Cn1ccc2c(NC(=O)CC34CC5CC(CC(C5)C3)C4)cccc2c1=O (stereo not shown) [Compound 750],inhibition at 0.3 µM,≥ 75%
CN(C)c1ccc(Cn2ccc3c(NC(=O)CC45CC6CC(CC(C6)C4)C5)cccc3c2=O)cc1 [Compound 747],inhibition at 0.3 µM,≥ 75%
NC(=O)CN1CCc2c(NC(=O)CC34CC5CC(CC(C5)C3)C4)cccc2C1=O [Compound 828],inhibition at 0.1 µM,≥ 75%
O=C(CC12CC3CC(CC(C3)C1)C2)Nc1cccc2c(=O)n(CCN3CCCC3)ccc12 [Compound 783],inhibition at 0.1 µM,≥ 75%
CC12CC3CC(C)(C1)CC(CC(=O)Nc1cccc4c(=O)n(Cc5cccnc5)ccc14)(C3)C2 [Compound 756],inhibition at 0.1 µM,50 to 75%
CC(C)C(CO)n1ccc2c(NC(=O)CC34CC5CC(CC(C5)C3)C4)cccc2c1=O (stereo not shown) [Compound 887],inhibition at 0.1 µM,≥ 75%
C[C@@H](CO)n1ccc2c(NC(=O)CC34CC5CC(CC(C5)C3)C4)cccc2c1=O [Compound 896],inhibition at 0.3 µM,≥ 75%
CC12CC3CC(C)(C1)CC(CC(=O)Nc1cccc4c(=O)[nH]ccc14)(C3)C2 [Compound 841],inhibition at 0.1 µM,≥ 75%
CC12CC3CC(C)(C1)CC(CC(=O)Nc1cccc4c(=O)n(CCCN5CCOCC5)ccc14)(C3)C2 [Compound 892],inhibition at 0.3 µM,≥ 75%
O=C(CC12CC3CC(CC(C3)C1)C2)Nc1cccc2c1CCN(C(CO)CO)C2=O [Compound 827],inhibition at 0.1 µM,≥ 75%
Cc1cc(Cn2ccc3c(NC(=O)CC45CC6CC(CC(C6)C4)C5)cccc3c2=O)nn1C [Compound 719],inhibition at 0.3 µM,25 to 50%
Cc1ccccc1Cn1ccc2c(NC(=O)CC34CC5CC(CC(C5)C3)C4)cccc2c1=O [Compound 723],inhibition at 0.3 µM,≥ 75%
O=C(CC12CC3CC(CC(C3)C1)C2)Nc1cccc2c(=O)n(CCCN3CCOCC3)ccc12 [Compound 781],inhibition at 0.1 µM,≥ 75%
CC(c1cccnc1)n1ccc2c(NC(=O)CC34CC5CC(CC(C5)C3)C4)cccc2c1=O (stereo not shown) [Compound 837],inhibition at 0.1 µM,≥ 75%
CC(C)(C)OC(=O)N1CCCC1CN1CCc2c(NC(=O)CC34CC5CC(CC(C5)C3)C4)cccc2C1=O (stereo not shown) [Compound 857],inhibition at 0.1 µM,≥ 75%
CC12CC3CC(C)(C1)CC(CC(=O)Nc1cccc4c(=O)n(Cc5ccncc5)ccc14)(C3)C2 [Compound 755],inhibition at 0.1 µM,≥ 75%
CCN1CCCC1Cn1ccc2c(NC(=O)CC34CC5CC(C)(CC(C)(C5)C3)C4)cccc2c1=O (stereo not shown) [Compound 772],inhibition at 0.1 µM,50 to 75%
CN(C)CCN1CCc2c(NC(=O)CC34CC5CC(CC(C5)C3)C4)cccc2C1=O [Compound 800],inhibition at 0.1 µM,50 to 75%
O=C(CC12CC3CC(CC(C3)C1)C2)Nc1cccc2c(=O)n(C[C@H]3CCCO3)ccc12 [Compound 771],inhibition at 0.1 µM,≥ 75%
O=C(CC12CC3CC(CC(C3)C1)C2)Nc1cccc2c(=O)n(C[C@@H]3CCCO3)ccc12 [Compound 739],inhibition at 0.3 µM,≥ 75%
"O=C(Nc1cccc2c(=O)n(Cc3ccccc3)ccc12)C12CC3CC(CC(F)(C3)C1)C2 [Compound 816, 3-Fluoro-Adamantan-1-yl-N-(2-benzyl-1-oxo-1,2-dihydro-isoquinolin-5-yl)-formamide]",inhibition at 0.1 µM,25 to 50%
CC12CC3CC(C)(C1)CC(CC(=O)Nc1cccc4c(=O)n(Cc5c(F)cccc5F)ccc14)(C3)C2 [Compound 835],inhibition at 0.1 µM,≥ 75%
Cc1cnc(Cn2ccc3c(NC(=O)CC45CC6CC(C)(CC(C)(C6)C4)C5)cccc3c2=O)cn1 [Compound 757],inhibition at 0.1 µM,≥ 75%
O=C(CC12CC3CC(CC(C3)C1)C2)Nc1cccc2c(=O)n(Cc3ccccc3Cl)ccc12 [Compound 708],inhibition at 0.3 µM,≥ 75%
CC(C)(C)OC(=O)N1CCCC1Cn1ccc2c(NC(=O)CC34CC5CC(CC(C5)C3)C4)cccc2c1=O (stereo not shown) [Compound 773],inhibition at 0.1 µM,≥ 75%
NC(=O)CCn1ccc2c(NC(=O)CC34CC5CC(CC(C5)C3)C4)cccc2c1=O [Compound 829],inhibition at 0.1 µM,≥ 75%
O=C(CC12CC3CC(CC(C3)C1)C2)Nc1cccc2c1CCN(Cc1ccccn1)C2=O [Compound 795],inhibition at 0.1 µM,≥ 75%
O=C(CC12CC3CC(CC(C3)C1)C2)Nc1cccc2c1CCN(CCCN1CCOCC1)C2=O [Compound 876],inhibition at 0.1 µM,≥ 75%
CC1CN(CCn2ccc3c(NC(=O)CC45CC6CC(CC(C6)C4)C5)cccc3c2=O)CC(C)O1 (stereo not shown) [Compound 869],inhibition at 0.1 µM,50 to 75%
CC12CC3CC(C)(C1)CC(CC(=O)Nc1cccc4c1CCN(Cc1ccc5c(c1)OCO5)C4=O)(C3)C2 [Compound 814],inhibition at 0.1 µM,≥ 75%
O=C(CC12CC3CC(CC(C3)C1)C2)Nc1cccc2c1CCN(CCCN1CCCC1)C2=O [Compound 880],inhibition at 0.1 µM,≥ 75%
O=C(CC12CC3CC(CC(C3)C1)C2)Nc1cccc2c(=O)n(Cc3c(F)cccc3Cl)ccc12 [Compound 722],inhibition at 0.3 µM,≥ 75%
Cc1cccnc1CN1CCc2c(NC(=O)CC34CC5CC(CC(C5)C3)C4)cccc2C1=O [Compound 825],inhibition at 0.1 µM,≥ 75%
CC12CC3CC(C)(C1)CC(CC(=O)Nc1cccc4c(=O)n(Cc5ccc(C(F)(F)F)cc5)ccc14)(C3)C2 [Compound 753],inhibition at 0.1 µM,≥ 75%
CC(C)Cn1ccc2c(N(C)C(=O)CC34CC5CC(CC(C5)C3)C4)cccc2c1=O [Compound 893],inhibition at 0.3 µM,25 to 50%
Cc1nn(C)c(C)c1CN1CCc2c(NC(=O)CC34CC5CC(CC(C5)C3)C4)cccc2C1=O [Compound 729],inhibition at 0.3 µM,≥ 75%
Cc1cc(Cn2ccc3c(NC(=O)CC45CC6CC(C)(CC(C)(C6)C4)C5)cccc3c2=O)no1 [Compound 761],inhibition at 0.1 µM,50 to 75%
O=C(CC12CC3CC(CC(C3)C1)C2)Nc1cccc2c(=O)n(Cc3cn4ccccc4n3)ccc12 [Compound 770],inhibition at 0.1 µM,≥ 75%
O=C(CC12CC3CC(CC(C3)C1)C2)Nc1cccc2c1CCN(Cc1ccccc1F)C2=O [Compound 790],inhibition at 0.1 µM,≥ 75%
CC12CC3CC(C)(C1)CC(CC(=O)Nc1cccc4c(=O)n(Cc5ccc(F)cc5)ccc14)(C3)C2 [Compound 754],inhibition at 0.1 µM,≥ 75%
CC12CC3CC(C)(C1)CC(CC(=O)Nc1cccc4c(=O)n(CC5COCCO5)ccc14)(C3)C2 (stereo not shown) [Compound 762],inhibition at 0.1 µM,50 to 75%
CC1CNC(CN2CCc3c(NC(=O)CC45CC6CC(CC(C6)C4)C5)cccc3C2=O)CN1 (stereo not shown) [Compound 806],inhibition at 0.1 µM,≥ 75%
O=C(CC12CC3CC(CC(C3)C1)C2)Nc1cccc2c(=O)n(Cc3ccc(F)cc3F)ccc12 [Compound 705],inhibition at 0.3 µM,≥ 75%
O=C(CC12CC3CC(CC(C3)C1)C2)Nc1cccc2c(=O)n(Cc3c(F)cccc3F)ccc12 [Compound 733],inhibition at 0.3 µM,≥ 75%
O=C(CC12CC3CC(CC(C3)C1)C2)Nc1cccc2c(=O)n(C[C@H]3CCCN3)ccc12 [Compound 811],inhibition at 0.1 µM,≥ 75%
O=C(CC12CC3CC(CC(C3)C1)C2)Nc1cccc2c(=O)n(CC3COCCO3)ccc12 (stereo not shown) [Compound 724],inhibition at 0.3 µM,≥ 75%
Cc1cnc(CN2CCc3c(NC(=O)CC45CC6CC(C)(CC(C)(C6)C4)C5)cccc3C2=O)cn1 [Compound 778],inhibition at 0.1 µM,≥ 75%
Cc1cc(CN2CCc3c(NC(=O)CC45CC6CC(CC(C6)C4)C5)cccc3C2=O)nn1C [Compound 797],inhibition at 0.1 µM,≥ 75%
CC(C)(C)OC(=O)N1CCC[C@@H]1Cn1ccc2c(NC(=O)CC34CC5CC(CC(C5)C3)C4)cccc2c1=O [Compound 774],inhibition at 0.1 µM,≥ 75%
CC(c1ccccc1)N1CCc2c(NC(=O)CC34CC5CC(C)(CC(C)(C5)C3)C4)cccc2C1=O (stereo not shown) [Compound 838],inhibition at 0.1 µM,≥ 75%
CC(C)(C)OC(=O)N1CCC(Cn2ccc3c(NC(=O)CC45CC6CC(CC(C6)C4)C5)cccc3c2=O)CC1 [Compound 748],inhibition at 0.3 µM,≥ 75%
CC(c1ccncc1)n1ccc2c(NC(=O)CC34CC5CC(CC(C5)C3)C4)cccc2c1=O (stereo not shown) [Compound 859],inhibition at 0.1 µM,≥ 75%
CN1CCCC1CCn1ccc2c(NC(=O)CC34CC5CC(CC(C5)C3)C4)cccc2c1=O (stereo not shown) [Compound 788],inhibition at 0.1 µM,≥ 75%
CN1CCC(Cn2ccc3c(NC(=O)CC45CC6CC(CC(C6)C4)C5)cccc3c2=O)CC1 [Compound 767],inhibition at 0.1 µM,≥ 75%

# From US20090170838A1, “Bicycloheteroaryl compounds as P2X7 modulators and uses thereof” (Renovis, Inc., priority 2005, published 2009)
